Assay [1] addresses T1, recombinant TMEM97 (Homo sapiens, UniProt Q5BJF2).
T1 construct: Full-length cDNAs encoding for the each protein of interest were subcloned into pcDNA3.1 myc-His A; expressed in transfected cells; host or cells: HEK293T
Put plainly: In situ gel-based competition of arachidonoyl probe labeling of recombinant TMEM97 in HEK293T cells. The format is cell-based. The note with it: TMEM97-transfected HEK293T cells, probe 5 μM, competitor 25 μM. How it is done: (§1) Proteomes were diluted to 1.0 mg/mL (total protein concentration) and 50 μL of each proteome was transferred to separate wells in a 96-well plate.
Full-length cDNAs encoding for the each protein of interest were subcloned into pcDNA3.1 myc-His A (Invitrogen) or used directly for transfections if available in a eukaryotic expression vector. HEK293T cells were grown to ˜70% confluence under standard growth conditions before adding the appropriate cDNA [control cells (“mock”) received an equal amount of empty pcDNA3.1 myc-His A vector] and FuGENE 6 or X-tremeGENE HP (Roche) transfection reagent according to the manufacturer's instructions. Cells were incubated for 36-48 hours before labeling in situ or harvesting for in vitro experiments.

For assay [2], the system named is AEA-DA lipid probe targets in Neuro2a cells. The note with it: Neuro2a cells, AEA-DA 5 μM.
The target in assay [3] is T2, A-DA lipid probe targets in Neuro2a cells (Mus musculus, UniProt P22437).
T2 construct: endogenous in cells; host or cells: Neuro2a
T2 sequence (P22437 27-602): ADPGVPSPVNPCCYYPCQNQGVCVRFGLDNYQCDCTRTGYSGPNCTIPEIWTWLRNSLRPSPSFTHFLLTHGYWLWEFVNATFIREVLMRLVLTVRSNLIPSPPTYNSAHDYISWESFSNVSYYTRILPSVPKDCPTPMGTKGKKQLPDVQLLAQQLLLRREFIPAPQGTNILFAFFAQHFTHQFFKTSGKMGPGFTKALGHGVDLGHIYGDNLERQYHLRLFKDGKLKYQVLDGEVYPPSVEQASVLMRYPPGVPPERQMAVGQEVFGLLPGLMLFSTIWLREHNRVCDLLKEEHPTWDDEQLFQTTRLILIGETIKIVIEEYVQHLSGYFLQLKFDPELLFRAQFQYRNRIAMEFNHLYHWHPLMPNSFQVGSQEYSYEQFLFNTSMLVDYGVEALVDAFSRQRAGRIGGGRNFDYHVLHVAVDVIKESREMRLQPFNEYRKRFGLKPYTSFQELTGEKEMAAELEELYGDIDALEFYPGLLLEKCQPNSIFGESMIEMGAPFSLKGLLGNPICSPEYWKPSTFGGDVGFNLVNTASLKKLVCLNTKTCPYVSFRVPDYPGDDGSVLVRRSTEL
Put plainly: In situ competitive SILAC profiling with A-DA probe in Neuro2a cells. The format is cell-based. The note with it: Neuro2a cells, A-DA 5 μM, drug 25 μM.

Assay [4] concerns sterol-binding proteins in HeLa cells. Put plainly: SILAC MS-based profiling of sterol-binding proteins in HeLa cells. The format is cell-based, human. The note with it: probe-enriched proteins.
Procedure: To facilitate delivery to cells, all sterols and steroids, including the sterol probes, were complexed in aqueous solution to mβCD (Sigma-Aldrich) for at least twelve hours before dilution in culture medium for labeling. The desired amount of sterol or steroid was added to a saturated aqueous mβCD (38 mM) solution to generate a concentrated stock, and agitated at room temperature overnight; solutions were filtered prior to use the following day. Aqueous stock solutions of the trans probe were prepared at 2 mM; the cis and epi probes were prepared at 1.2 mM; cholesterol and other sterols for competition were prepared at 4 mM; steroids were prepared at 5 mM. […]
Assay [5] shares this test system. Put plainly: Gel-based profiling of sterol-binding proteins in HeLa cells. The format is cell-based, human. The note with it: 1-20 μM probe. Here is the method: HeLa cells were grown at 37° C. under a humidified 5% CO2 atmosphere, in a culture medium consisting of high-glucose DMEM (HyClone) supplemented with 10% fetal bovine serum (FBS; Gemini) and penicillin, streptomycin, and glutamine (Cellgro; PSQ). For SILAC experiments, the culture medium was replaced with SILAC DMEM (Thermo) supplemented instead with 10% dialyzed FBS, PSQ, and 100 μg/ml [^13C6, ^15N4] L-arginine-HCl and [^13C6, ^15N2] L-lysine-HCl (Sigma-Aldrich). Cells were passaged at least six times in isotopically labeled media before being utilized for analysis by LC-MS/MS.
To facilitate delivery to cells, all sterols and steroids, including the sterol probes, were complexed in aqueous solution to mβCD (Sigma-Aldrich) for at least twelve hours before dilution in culture medium for labeling. The desired amount of sterol or steroid was added to a saturated aqueous mβCD (38 mM) solution to generate a concentrated stock, and agitated at room temperature overnight; solutions were filtered prior to use the following day. […]
Frozen cell pellets were thawed on ice and lysed in PBS by sonication. Protein concentrations of cell lysates were determined using the BCA protein assay on a microplate reader. […] After 1 hour, samples were mixed with SDS sample loading buffer and loaded without boiling on a 10% SDS-PAGE gel, separated, and imaged using a Hitachi FMBIO-II flatbed fluorescence scanner.

Assay [6] concerns membrane and soluble proteins of HEK293T cells. Put plainly: Gel-based profiling of lipid probe labeling in HEK293T cells. The format is cell-based, human. The note with it: probe 20 μM, 30 min, UV. How it is done:
For gel-based analysis, after sonicating the membrane pellets in cold DPBS, protein concentrations of each fraction were determined using the BCA protein assay (Bio-Rad) and a microplate reader (Tecan, Infinite F500).
as §1
In some instances, within the arachidonoyl subset of probes, fatty acid- and fatty acid amide-based probes (AA-DA and AEA-DA, respectively) were synthesized and their potential were evaluated to bind and covalently modify (under UV-light exposure) proteins in human cells by gel-based profiling. For example, HEK293T cells were treated with probe (AA-DA or AEA-DA; 20 μM, 30 min), irradiated with UV light (10 min, 4° C.), lysed and the cell proteomes fractionated into membrane and soluble components by centrifugation prior to conjugation to a fluorescent reporter tag (Rh—N3) using CuAAC (FIG. 4A). […] In some instances, this was a consequence of rapid sequestration of this probe into membranes through its metabolic incorporation into phospho/neutral-lipids or into lipidated proteins. […] In some instances, the labeling profile of the AEA-DA probe reflected a limited capacity of the cell to metabolize this amidated probe, which undergoes enzyme-mediated hydrolysis prior to incorporation into other lipids or proteins.

T1 sequence (Q5BJF2 whole entry, species assumed): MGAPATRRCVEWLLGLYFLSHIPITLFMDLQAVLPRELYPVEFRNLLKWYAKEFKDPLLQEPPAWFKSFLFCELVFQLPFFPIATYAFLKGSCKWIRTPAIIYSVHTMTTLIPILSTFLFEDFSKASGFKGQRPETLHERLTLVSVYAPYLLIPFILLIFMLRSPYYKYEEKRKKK

As to `COc1cc2c(cc1OC)CN(CCc1ccc(NC(=O)c3cccc4c(=O)c5cccc(OC)c5[nH]c34)cc1)CC2` [elacridar, reference compound], the “competition of arachidonoyl probe labeling of recombinant TMEM97” value in assay [1] is given as “competition was observed”. The “concentration blocking lipid probe labeling of FECH, ABCB1B and TMEM97 (as low as)” value in assay [2] stood at 0.5 µM.
In the case of `CC(C(=O)O)c1ccc(-c2ccccc2)c(F)c1` (racemic) [(±)-flurbiprofen], the “competition of A-DA labeling of PTGS1” value in assay [3] is listed as “competitively blocked”.
As to `C#CCCCCOC(=O)CC[C@@H](C)[C@H]1CCC2C3CC4(N=N4)[C@H]4C[C@@H](O)CC[C@]4(C)C3CC[C@@]21C` (stereo partly drawn) [trans-sterol probe, (4R)-hex-5-yn-1-yl 4-((3S,5S,10R,13R,17R)-3-hydroxy-10,13-dimethyl-1,2,3,4,5,7,8,9,10,11,12,13,14,15,16,17-hexadecahydrospiro[cyclopenta[a]phenanthrene-6,3′-diazirin]-17-yl)pentanoate], in assay [4] (standard deviation 1.2), the “mean labeling intensity ratio trans/epi” value turned out to be 2.1. Also, the “mean labeling intensity ratio trans/cis” value in assay [4] (standard deviation=0.57) was 0.9. Moreover, the “overall protein-labeling profile by gel” value in assay [5] is reported as “stronger overall protein-labeling profiles”.
Consider `C#CCCCC1(CC/C=C\C/C=C\C/C=C\CCCC(=O)O)N=N1` [AA-DA, (5Z,8Z,11Z)-14-(3-(pent-4-yn-1-yl)-3H-diazirin-3-yl)tetradeca-5,8,11-trienoic acid], for which the “protein labeling profile (membrane vs soluble)” value in assay [6] was “almost exclusive labeling of membrane proteins”.

(Values after patent US10168342B2, “Lipid probes and uses thereof” (THE SCRIPPS RESEARCH INSTITUTE, priority 2015, dated 2019).)
